In PubChem BioAssay AID1963832 (Molecular Pharmacology Branch, DTP, NCI, 2024):
Several values for one entry are separate records, joined by “and”; a condition that tells them apart may be missing. Identical values can stand only once.

System: 885724-159-R-J1-PDC complex spheroid viability
Assay: Anticancer human tumor 885724-159-R-J1-PDC patient-derived pancreatic adenocarcinoma cell line growth inhibition [POLQ]
Conditions: for viability, T/C: stronger effect = lower value
Experimental: Multicellular complex tumor spheroid response to Polymerase (POL) inhibitors (novobiocin, ART-558, RP6685) in combination with a variety of drugs and investigational agents in selected tumor cell lines
The POL inhibitors (novobiocin, ART-558, and RP6685) were evaluated both individually and in combination with standard of care and investigational anticancer small molecules within a complex spheroid model of solid tumors. . Complex spheroids include a stromal component modeled by human endothelial cells (HUVEC) and fibroblasts modeled by human mesenchymal stem cells (MSCs). The concentration ranges selected for each drug and investigational agent were based upon clinically achievable concentrations if the clinical Cmax of the agent was known.
Compounds. The drugs and investigational agents: novobiocin (NSC847541), ART-558 (NSC835418), RP-6685 (NSC848927), peposertib (NSC802822), ceralasertib (NSC780249), elimusertib (NSC800525), camonsertib (NSC841442), AZD-1390 (NSC803789), olaparib (NSC753686), talazoparib (NSC767125), rucaparib (NSC756644), sotorasib (NSC818433), MRTX-1133 (NSC836407), SN-38 (NSC673596), topotecan (NSC609699), epotoside (NSC141540), doxorubicin (NSC123127), gemcitabine (NSC613327), 5-fluorouracil (NSC19893), paclitaxel (NSC125973), vemurafenib (NSC761431), MSA-2 (NSC828583), SN-011 (NSC837082), adavosertib (NSC754352), prexasertib (NSC758257), carboplatin (NSC241240) and oxaliplatin (NSC266046), were obtained from the National Cancer Institute (NCI) Developmental Therapeutics Program Chemical Repository (21). The FDA-approved anticancer drug set is available from the Developmental Therapeutics Program at https://dtp.cancer.gov/organization/dscb/obtaining/. […] The stock solutions were prepared in dimethyl sulfoxide (DMSO, Sigma-Aldrich, St. Louis, MO, cat. D2650), except for the platinum compounds which were prepared in saline (Quality Biological, Gaithersburg, MD, cat. 114-055-101), at 800-fold the tested concentration and stored at -70 degrees C prior to their use. All drugs and investigational agents were tested over a range starting from a high concentration at or near the clinical Cmax and decreasing in half-log increments. If the clinical Cmax for an agent had not been determined, the highest concentration tested was 10 microM, except for SN-38, which was tested at a high concentration of 1 microM.
Cell Culture. All cells were maintained in an incubator at 37 degrees C and 5% CO2 with 95% humidity. The PDC lines were cultured according to standard operating procedures established by the NCI PDMR (https://pdmr.cancer.gov). Table 3 of the manuscript, lists the cell lines along with the number of the three cell types plated to form the mct-spheroids and media for tumor cell growth. After thawing, all PDC lines, except 997537-175-T-J1-PDC and 415267-285-R-J2-PDC, were cultured in Matrigel-coated flasks prepared with a working solution of 1X Ham's F-12 nutrient mix, without supplementation (Thermo Fisher Scientific, cat. 11765054), 100 U/mL penicillin-streptomycin (Thermo Fisher Scientific, cat. 15140122), and 2.5% Matrigel (Corning Inc., Corning, NY, cat. 354248) for the first three passages. The two PDC lines 997537-175-T-J1-PDC and 415267-285-R-J2-PDC were cultured on uncoated flasks. The 857933-349-R-J2-PDC line was cultured in 6C/Colon 1B media containing advanced DMEM/F-12 (Thermo Fisher Scientific, cat. 12634028), 10 mM HEPES (Thermo Fisher Scientific, cat. 15630080), 1X GlutaMAX supplement (Thermo Fisher Scientific, cat. 35050061), 0.1 mg/mL primocin (InvivoGen, San Diego, CA, cat. ant-pm-2), 10% defined fetal bovine serum, heat inactivated (HyClone Laboratories Inc., Logan, UT, cat. SH30070.03HI), 50% L-WRN conditioned media (ATCC, cat. CRL-3276), 1.25 mM N-Acetyl-L-cysteine (Sigma-Aldrich, cat. A9165), 10 mM nicotinamide (Sigma-Aldrich, cat. N0636), 1X B-27 supplement (Thermo Fisher Scientific, cat. 17504044), 1X N-2 supplement (Thermo Fisher Scientific, cat. […]

[1] = curve of first compound, second compound 0.0316 µM
[2] = curve of first compound, second compound 0.1 µM
[3] = curve of first compound, second compound 0.316 µM
[4] = curve of first compound, second compound 1 µM
[5] = curve of first compound, second compound 3.16 µM
[6] = curve of first compound, second compound 10 µM
[7] = second compound 0.0316 µM, first compound 0.0316 µM
[8] = second compound 0.0316 µM, first compound 0.1 µM
[9] = second compound 0.0316 µM, first compound 0.316 µM
[10] = second compound 0.0316 µM, first compound 1 µM
[11] = second compound 0.1 µM, first compound 0.0316 µM
[12] = second compound 0.1 µM, first compound 0.1 µM
[13] = second compound 0.1 µM, first compound 0.316 µM
[14] = second compound 0.1 µM, first compound 1 µM
[15] = second compound 0.316 µM, first compound 0.0316 µM
[16] = second compound 0.316 µM, first compound 0.1 µM
[17] = second compound 0.316 µM, first compound 0.316 µM
[18] = second compound 0.316 µM, first compound 1 µM
[19] = second compound 1 µM, first compound 0.0316 µM
[20] = second compound 1 µM, first compound 0.1 µM
[21] = second compound 1 µM, first compound 0.316 µM
[22] = second compound 1 µM, first compound 1 µM
[23] = second compound 3.16 µM, first compound 0.0316 µM
[24] = second compound 3.16 µM, first compound 0.1 µM
[25] = second compound 3.16 µM, first compound 0.316 µM
[26] = second compound 3.16 µM, first compound 1 µM
[27] = second compound 10 µM, first compound 0.0316 µM
[28] = second compound 10 µM, first compound 0.1 µM
[29] = second compound 10 µM, first compound 0.316 µM
[30] = second compound 10 µM, first compound 1 µM
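Also: spheroids exposed to compounds for 7 days.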

COc1cc(C2c3cc4c(cc3C(OC3OC5COC(C)OC5C(O)C3O)C3COC(=O)C23)OCO4)cc(OC)c1O (stereo not drawn)
viability, T/C (compound 0.0316 µM): 94.8% and 95.3% and 106% | viability, T/C (compound 0.1 µM): 86.5% and 92.2% and 82.3% | viability, T/C (compound 0.316 µM): 75.8% and 85.9% and 68.5% | viability, T/C (compound 1 µM): 64.5% (2×) and 73% | viability, T/C (compound 3.16 µM): 58.4% and 57.7% and 55.9% | viability, T/C (compound 10 µM): 48% and 53.2% and 42.6% | IC50 (curve of compound): 8.15 µM and > 10 µM and 4.59 µM

CNCc1ccc(-c2[nH]c3cc(F)cc4c3c2CCNC4=O)cc1
viability, T/C (compound 0.0316 µM): 109% and 96.8% and 102% | viability, T/C (compound 0.1 µM): 102% and 92.6% and 112% | viability, T/C (compound 0.316 µM): 88.9% and 91.8% and 107% | viability, T/C (compound 1 µM): 87.8% and 98.4% and 99.9% | viability, T/C (compound 3.16 µM): 89.9% and 93.1% and 107% | viability, T/C (compound 10 µM): 93% and 91% and 83.8% | IC50 (curve of compound): > 10 µM

CC1COCCN1c1cc(C2(S(C)(=N)=O)CC2)nc(-c2ccnc3[nH]ccc23)n1 (stereo not drawn) + Nc1ccc(C#CCN(C(=O)Cc2ncc(C(F)(F)F)cc2C(F)(F)F)c2ccc(F)cc2)nn1
IC50 [1]: > 10 µM | IC50 [2]: 7.07 µM | IC50 [3]: > 10 µM | IC50 [4]: 6.07 µM | IC50 [5]: 8 µM | IC50 [6]: > 10 µM | viability, T/C [7]: 87.3% | viability, T/C [8]: 89.6% | viability, T/C [9]: 90.4% | viability, T/C [10]: 75.9% | viability, T/C (second compound 0.0316 µM, first compound 3.16 µM): 55.7% | viability, T/C (second compound 0.0316 µM, first compound 10 µM): 50% | viability, T/C [11]: 104% | viability, T/C [12]: 94.5% | viability, T/C [13]: 94% | viability, T/C [14]: 71.5% | viability, T/C (second compound 0.1 µM, first compound 3.16 µM): 57.8% | viability, T/C (second compound 0.1 µM, first compound 10 µM): 46.7% | viability, T/C [15]: 95.3% | viability, T/C [16]: 97.2% | viability, T/C [17]: 83.4% | viability, T/C [18]: 63.4% | viability, T/C (second compound 0.316 µM, first compound 3.16 µM): 55.5% | viability, T/C (second compound 0.316 µM, first compound 10 µM): 53.2% | viability, T/C [19]: 95.3% | viability, T/C [20]: 85.1% | viability, T/C [21]: 87.8% | viability, T/C [22]: 75.9% | viability, T/C (second compound 1 µM, first compound 3.16 µM): 55.8% | viability, T/C (second compound 1 µM, first compound 10 µM): 45.4% | viability, T/C [23]: 94.3% | viability, T/C [24]: 88.6% | viability, T/C [25]: 91.1% | viability, T/C [26]: 69.9% | viability, T/C (second compound 3.16 µM, first compound 3.16 µM): 53.5% | viability, T/C (second compound 3.16 µM, first compound 10 µM): 48.4% | viability, T/C [27]: 95.6% | viability, T/C [28]: 99.7% | viability, T/C [29]: 94.7% | viability, T/C [30]: 64.1% | viability, T/C (second compound 10 µM, first compound 3.16 µM): 57.8% | viability, T/C (second compound 10 µM, first compound 10 µM): 47%

C=CCn1c(=O)c2cnc(Nc3ccc(N4CCN(C)CC4)cc3)nc2n1-c1cccc(C(C)(C)O)n1 + Cc1cccc(N(C)C(=O)C2C(O)CCN2c2nc(C)cc(C(F)(F)F)c2C#N)c1
IC50 [1]: > 1 µM | IC50 [2]: 0.771 µM | IC50 [3]: 0.435 µM | IC50 [4]: 0.856 µM | IC50 [5]: > 1 µM | IC50 [6]: 0.817 µM | viability, T/C (second compound 0.0316 µM, first compound 0.00316 µM): 101% | viability, T/C (second compound 0.0316 µM, first compound 0.01 µM): 95.6% | viability, T/C [7]: 84.9% | viability, T/C [8]: 72.6% | viability, T/C [9]: 56.5% | viability, T/C [10]: 51.1% | viability, T/C (second compound 0.1 µM, first compound 0.00316 µM): 105% | viability, T/C (second compound 0.1 µM, first compound 0.01 µM): 98% | viability, T/C [11]: 93% | viability, T/C [12]: 77.2% | viability, T/C [13]: 59.9% | viability, T/C [14]: 47.2% | viability, T/C (second compound 0.316 µM, first compound 0.00316 µM): 98.6% | viability, T/C (second compound 0.316 µM, first compound 0.01 µM): 97.9% | viability, T/C [15]: 93.7% | viability, T/C [16]: 73% | viability, T/C [17]: 53.3% | viability, T/C [18]: 43.6% | viability, T/C (second compound 1 µM, first compound 0.00316 µM): 101% | viability, T/C (second compound 1 µM, first compound 0.01 µM): 93.8% | viability, T/C [19]: 88.9% | viability, T/C [20]: 70.1% | viability, T/C [21]: 55% | viability, T/C [22]: 49.4% | viability, T/C (second compound 3.16 µM, first compound 0.00316 µM): 92.2% | viability, T/C (second compound 3.16 µM, first compound 0.01 µM): 96.5% | viability, T/C [23]: 94.2% | viability, T/C [24]: 77.7% | viability, T/C [25]: 61.6% | viability, T/C [26]: 50% | viability, T/C (second compound 10 µM, first compound 0.00316 µM): 103% | viability, T/C (second compound 10 µM, first compound 0.01 µM): 84.8% | viability, T/C [27]: 98.2% | viability, T/C [28]: 82.7% | viability, T/C [29]: 61.6% | viability, T/C [30]: 47.5%
